Test results published in PubChem BioAssay (NCI).
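Following 48 hours of exposure in 96-well plates, responses at five concentrations were used to interpolate endpoints linearly. GI50 = concentration required for 50% inhibition of growth. At the TGI there is no net growth.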

Assays:
Assay in all cases: DTP human tumour cell line panel, 48 h
[1] = test system: 786-0 renal
[2] = test system: A549 NSCLC
[3] = test system: ACHN renal
[4] = test system: BT-549 breast
[5] = test system: CAKI-1 renal
[6] = test system: CCRF-CEM leukemia
[7] = test system: COLO 205 colon
[8] = test system: DU-145 prostate
[9] = test system: HCC-2998 colon
[10] = test system: HCT-116 colon
[11] = test system: HCT-15 colon
[12] = test system: HL-60(TB) leukemia
[13] = test system: HOP-62 NSCLC
[14] = test system: HOP-92 NSCLC
[15] = test system: HS 578T breast
[16] = test system: HT29 colon
[17] = test system: IGROV1 ovarian
[18] = test system: KM12 colon
[19] = test system: LOX IMVI melanoma
[20] = test system: M14 melanoma
[21] = test system: MALME-3M melanoma
[22] = test system: MCF7 breast
[23] = test system: MDA-MB-231 breast
[24] = test system: MDA-MB-435
[25] = test system: MOLT-4 leukemia
[26] = test system: NCI-H226 lung
[27] = test system: NCI-H23 lung
[28] = test system: NCI-H460 lung
[29] = test system: NCI-H522 lung
[30] = test system: NCI/ADR-RES ovarian
[31] = test system: OVCAR-3 ovarian
[32] = test system: OVCAR-4 ovarian
[33] = test system: OVCAR-5 ovarian
[34] = test system: OVCAR-8 ovarian
[35] = test system: PC-3 prostate
[36] = test system: RPMI-8226 leukemia
[37] = test system: SF-268 CNS
[38] = test system: SF-295 CNS
[39] = test system: SF-539 CNS
[40] = test system: SK-MEL-2 melanoma
[41] = test system: SK-MEL-28 melanoma
[42] = test system: SK-MEL-5 melanoma
[43] = test system: SK-OV-3 ovarian
[44] = test system: SN12C renal
[45] = test system: SNB-19 CNS
[46] = test system: SNB-75 CNS
[47] = test system: SR leukemia
[48] = test system: SW-620 colon
[49] = test system: T-47D breast
[50] = test system: TK-10 renal
[51] = test system: U251 CNS
[52] = test system: UACC-257 melanoma
[53] = test system: UACC-62 melanoma
[54] = test system: UO-31 renal
[55] = test system: A498 renal
[56] = test system: K-562 leukemia

Cc1ccc(SCC(OCn2cnc3c(N)ncnc32)[C@H](C)F)cc1 (stereo partly specified)
TGI [1]: > 100 µM | TGI [2]: > 100 µM | TGI [3]: > 100 µM | TGI [4]: > 100 µM | TGI [5]: > 100 µM | TGI [6]: > 100 µM | TGI [7]: > 100 µM | TGI [8]: > 100 µM | TGI [9]: > 100 µM | TGI [10]: > 100 µM | TGI [11]: > 100 µM | TGI [12]: > 100 µM | TGI [13]: > 100 µM | TGI [14]: > 100 µM | TGI [15]: > 100 µM | TGI [16]: > 100 µM | TGI [17]: > 100 µM | TGI [18]: > 100 µM | TGI [19]: > 100 µM | TGI [20]: > 100 µM | TGI [21]: > 100 µM | TGI [22]: > 100 µM | TGI [23]: > 100 µM | TGI [24]: > 100 µM | TGI [25]: > 100 µM | TGI [26]: > 100 µM | TGI [27]: > 100 µM | TGI [28]: > 100 µM | TGI [29]: > 100000 nM | TGI [30]: > 100 µM | TGI [31]: > 100 µM | TGI [32]: > 100000 nM | TGI [33]: > 100 µM | TGI [34]: > 100 µM | TGI [35]: > 100 µM | TGI [36]: > 100 µM | TGI [37]: > 100 µM | TGI [38]: > 100 µM | TGI [39]: > 100 µM | TGI [40]: > 100 µM | TGI [41]: > 100 µM | TGI [42]: > 100 µM | TGI [43]: > 100 µM | TGI [44]: > 100 µM | TGI [45]: > 100 µM | TGI [46]: > 100 µM | TGI [47]: > 100 µM | TGI [48]: > 100 µM | TGI [49]: > 100 µM | TGI [50]: > 100 µM | TGI [51]: > 100 µM | TGI [52]: > 100 µM | TGI [53]: > 100 µM | TGI [54]: > 100 µM

CC(C)(Cl)CCC1=C(Cl)C(=O)c2ccccc2C1=O
GI50 [1]: 3.41 µM | TGI [1]: 10.7 µM | GI50 [55]: 1850 nM | TGI [55]: 12 µM | GI50 [2]: 3.2 µM | TGI [2]: 11 µM | GI50 [3]: 1650 nM | TGI [3]: 3.03 µM | GI50 [4]: 2350 nM | TGI [4]: 8.78 µM | GI50 [5]: 1870 nM | TGI [5]: 3.46 µM | GI50 [6]: 1220 nM | TGI [6]: 4.79 µM | GI50 [7]: 2070 nM | TGI [7]: 4.12 µM | GI50 [8]: 6.12 µM | TGI [8]: 18.2 µM | GI50 [10]: 1590 nM | TGI [10]: 3.19 µM | GI50 [11]: 1580 nM | TGI [11]: 3.05 µM | GI50 [12]: 1330 nM | TGI [12]: 3.84 µM | GI50 [13]: 4.71 µM | TGI [13]: 17 µM | GI50 [15]: 3.26 µM | TGI [15]: 45.8 µM | GI50 [16]: 15.6 µM | TGI [16]: 31.5 µM | GI50 [17]: 2350 nM | TGI [17]: 5.22 µM | GI50 [56]: 1250 nM | TGI [56]: 10.6 µM | GI50 [18]: 2280 nM | TGI [18]: 5.32 µM | GI50 [19]: 1730 nM | TGI [19]: 3.26 µM | GI50 [20]: 2280 nM | TGI [20]: 5.51 µM | GI50 [22]: 1990 nM | TGI [22]: 4.05 µM | GI50 [23]: 1730 nM | TGI [23]: 3.65 µM | GI50 [24]: 2150 nM | TGI [24]: 4.62 µM | GI50 [25]: 1910 nM | TGI [25]: 6.04 µM | GI50 [26]: 3.38 µM | TGI [26]: 14.5 µM | GI50 [27]: 2820 nM | TGI [27]: 9.93 µM | GI50 [28]: 3.31 µM | TGI [28]: 12.4 µM | GI50 [29]: 586 nM | TGI [29]: 1910 nM | GI50 [30]: 3.29 µM | TGI [30]: 19.5 µM | GI50 [31]: 1720 nM | TGI [31]: 3.17 µM | GI50 [32]: 1550 nM | TGI [32]: 2890 nM | GI50 [33]: 2250 nM | TGI [33]: 5.6 µM | GI50 [34]: 2030 nM | TGI [34]: 5.03 µM | GI50 [35]: 2270 nM | TGI [35]: 8.07 µM | GI50 [36]: 1780 nM | TGI [36]: 4.65 µM | GI50 [37]: 3.07 µM | TGI [37]: 11.3 µM | GI50 [38]: 3.22 µM | TGI [38]: 11 µM | GI50 [39]: 2010 nM | TGI [39]: 4.58 µM | GI50 [40]: 2430 nM | TGI [40]: 4.97 µM | GI50 [41]: 2400 nM | TGI [41]: 5.26 µM | GI50 [42]: 1780 nM | TGI [42]: 3.57 µM | GI50 [43]: 5.48 µM | TGI [43]: 17.6 µM | GI50 [44]: 3.64 µM | TGI [44]: 13.5 µM | GI50 [45]: 4.22 µM | TGI [45]: 17.1 µM | GI50 [46]: 1690 nM | TGI [46]: 6.44 µM | GI50 [47]: 2040 nM | TGI [47]: 5.69 µM | GI50 [48]: 1740 nM | TGI [48]: 3.63 µM | GI50 [49]: 1970 nM | TGI [49]: 5.52 µM | GI50 [51]: 2430 nM | TGI [51]: 8.67 µM | GI50 [52]: 1670 nM | TGI [52]: 3.2 µM | GI50 [54]: 1590 nM | TGI [54]: 3.15 µM
